Measurements from publication PMC5697638, “Identification of a Potent Phosphoinositide 3‐Kinase Pan Inhibitor Displaying a Strategic Carboxylic Acid Group and Development of Its Prodrugs” (Chemmedchem, 2017).
Read-outs that look alike come from different tables or passages of the source.

How the values were obtained:
Assay type in all cases: biochemical
[1] = biological target: T1, human PI3Kα (PIK3CA/PIK3R1) (Homo sapiens, UniProt P42336); test: lipid kinase assay (ADP-Glo), PI3Kα; settings: for inhibition at 1 µM: determined at 1 μM, at least triplicate, read-out: Inhibitory activity, PI3K isoform α; for IC50: mean of at least three determinations, 95 % confidence intervals
T1 construct: purchased ProQinase, Germany 1161‐1165‐1
T1 sequence (P42336 whole entry, canonical isoform): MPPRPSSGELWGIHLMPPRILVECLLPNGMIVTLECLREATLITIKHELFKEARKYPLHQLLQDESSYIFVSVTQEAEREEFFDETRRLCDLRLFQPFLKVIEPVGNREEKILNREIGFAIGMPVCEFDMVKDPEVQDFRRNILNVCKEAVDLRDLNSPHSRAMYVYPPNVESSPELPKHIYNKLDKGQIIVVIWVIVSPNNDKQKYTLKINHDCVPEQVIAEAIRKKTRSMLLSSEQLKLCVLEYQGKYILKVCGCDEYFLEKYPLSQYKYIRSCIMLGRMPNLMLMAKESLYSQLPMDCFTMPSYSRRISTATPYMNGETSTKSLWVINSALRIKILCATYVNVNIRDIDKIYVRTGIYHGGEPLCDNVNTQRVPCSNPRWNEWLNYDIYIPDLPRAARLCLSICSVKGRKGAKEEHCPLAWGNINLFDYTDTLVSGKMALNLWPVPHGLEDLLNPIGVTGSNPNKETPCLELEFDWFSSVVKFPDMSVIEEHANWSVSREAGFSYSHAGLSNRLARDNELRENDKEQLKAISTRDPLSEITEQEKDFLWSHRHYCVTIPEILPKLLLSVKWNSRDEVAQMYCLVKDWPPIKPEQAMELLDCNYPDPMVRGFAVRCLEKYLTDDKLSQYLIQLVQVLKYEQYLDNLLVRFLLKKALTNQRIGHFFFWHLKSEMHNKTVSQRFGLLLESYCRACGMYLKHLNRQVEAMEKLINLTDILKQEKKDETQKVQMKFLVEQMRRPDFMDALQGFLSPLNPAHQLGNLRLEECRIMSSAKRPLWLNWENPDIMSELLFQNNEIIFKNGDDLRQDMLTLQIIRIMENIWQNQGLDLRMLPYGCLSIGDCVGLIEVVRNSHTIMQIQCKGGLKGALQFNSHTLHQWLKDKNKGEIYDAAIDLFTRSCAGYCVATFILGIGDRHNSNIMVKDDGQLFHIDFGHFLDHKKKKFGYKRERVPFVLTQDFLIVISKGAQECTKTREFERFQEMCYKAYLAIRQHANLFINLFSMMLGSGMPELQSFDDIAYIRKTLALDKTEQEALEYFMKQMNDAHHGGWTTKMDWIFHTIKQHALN
T1 sequence (P27986 whole entry partner, canonical isoform): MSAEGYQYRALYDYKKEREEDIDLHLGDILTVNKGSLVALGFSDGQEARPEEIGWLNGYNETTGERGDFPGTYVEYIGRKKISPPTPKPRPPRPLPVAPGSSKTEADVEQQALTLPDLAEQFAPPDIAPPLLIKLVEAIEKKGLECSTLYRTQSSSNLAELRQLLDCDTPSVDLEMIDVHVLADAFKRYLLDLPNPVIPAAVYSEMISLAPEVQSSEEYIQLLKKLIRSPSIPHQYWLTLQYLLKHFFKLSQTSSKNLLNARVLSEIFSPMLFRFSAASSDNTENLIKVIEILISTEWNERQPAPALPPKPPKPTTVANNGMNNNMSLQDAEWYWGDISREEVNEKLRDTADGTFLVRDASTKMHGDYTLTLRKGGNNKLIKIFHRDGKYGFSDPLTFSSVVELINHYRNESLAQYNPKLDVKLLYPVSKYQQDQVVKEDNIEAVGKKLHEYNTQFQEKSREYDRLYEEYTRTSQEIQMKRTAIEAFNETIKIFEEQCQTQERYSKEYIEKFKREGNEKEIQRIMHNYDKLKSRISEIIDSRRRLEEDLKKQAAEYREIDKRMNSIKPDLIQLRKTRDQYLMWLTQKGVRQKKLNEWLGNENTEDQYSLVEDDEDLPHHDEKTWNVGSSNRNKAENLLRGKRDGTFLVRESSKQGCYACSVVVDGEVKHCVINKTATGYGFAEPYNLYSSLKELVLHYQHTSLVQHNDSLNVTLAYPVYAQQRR
Method: (§1) In vitro selection, lipid kinase assay: To determine the inhibitory activity of the new molecular entities on PI3K enzyme, a lipid kinase assay was performed: recombinant proteins (30 ng), human PI3Kα (PIK3CA/PIK3R1, #1161‐1165‐1 ProQinase–Germany), hPI3Kβ (PIK3CB wt/PIK3R1, #1168‐1165‐1 ProQinase, Germany), hPI3Kγ (PIK3CG, #1163‐0000‐1 ProQinase, Germany), hPI3Kδ (PIK3CD/PIK3R1, #1162–1165‐1 ProQinase, Germany), hPI3K‐C2α (PIK3C2A, #14‐906 Merck Millipore_Merck KGaA, Germany), hPI3K‐C2β (PIK3C2B, #14‐907 Merck Millipore_Merck KGaA, Germany), hPI3K‐c2γ (PIK3C2G, #1207‐0000‐1 ProQinase, Germany), and hVps34 (PIK3C3, #1160‐0000‐1 ProQinase, Germany), were incubated in kinase buffer {12.5 μL; 20 mM Tris‐HCl pH 7.5, 10 mM MgCl2, 10 μM ATP, 0.05 mg mL^−1 BSA, 0.5 mM EDTA, 5 mM HEPES pH 7.5, for PI3Kα,PI3Kβ, PI3Kγ, PI3Kδ, PI3KC‐2α, and PI3KC‐2γ; 15 mM MnCl2, 5 mM EGTA, 100 μM ATP, 50 mM HEPES pH 7.5, 100 mM NaCl, and 0.03 % CHAPS for PI3K‐C2β and VPS34 {BSA=bovine serum albumin; EDTA=ethylenediaminetetraacetic acid; HEPES=4‐(2‐hydroxyethyl)‐1‐piperazineethanesulfonic acid; EGTA=ethylene glycol‐bis(2‐aminoethylether)‐N,N,N′,N′‐tetraacetic acid; CHAPS=3‐[(3‐cholamidopropyl)dimethylammonio]‐1‐propanesulfonate}. In the reaction, the ATP concentration used for different PI3Ks was defined on the basis of the Michaelis–Menten kinetics of each enzyme, provided by the supplier. Reaction was performed in presence of 0.5 mg mL^−1 lipid micelles (1:1 phosphatidylinositol/phosphatidylserine) and in the absence (DMSO alone) or presence of increasing concentrations of each compound (from 0.1 nM to 30 μM). The mixture was kept at room temperature (RT) for 30 min for PI3Kα, PI3Kβ, PI3Kγ, PI3Kδ, PI3KC‐2α, and PI3KC‐2γ and for 1 h for PI3K‐C2β and PI3K‐C3. The amount of ADP produced in the reaction was measured by using the ADP‐Glo Kinase Assay kit from Promega (#V9102) and a luminescence reader (Glomax multi detection system, Promega, model number 9301‐010).
(§2) The residual PI3K lipid kinase activity in the presence of each molecule at different concentrations was related to the control, intended as the recombinant protein in the presence of DMSO alone and was expressed as a percentage. To derive the IC50 value, all data (% of lipid kinase activity) were plotted on a dose–response curve (Graph Pad software), and the IC50 was calculated by using nonlinear regression fit (equation [log agonist] versus response).

[2] = biological target: T2, hPI3Kβ (PIK3CB wt/PIK3R1) (Homo sapiens, UniProt P42338); test: lipid kinase assay (ADP-Glo), PI3Kβ; settings: for inhibition at 1 µM: determined at 1 μM, at least triplicate, read-out: Inhibitory activity, PI3K isoform β
T2 construct: purchased ProQinase, Germany 1168‐1165‐1
T2 sequence (P42338 whole entry, canonical isoform): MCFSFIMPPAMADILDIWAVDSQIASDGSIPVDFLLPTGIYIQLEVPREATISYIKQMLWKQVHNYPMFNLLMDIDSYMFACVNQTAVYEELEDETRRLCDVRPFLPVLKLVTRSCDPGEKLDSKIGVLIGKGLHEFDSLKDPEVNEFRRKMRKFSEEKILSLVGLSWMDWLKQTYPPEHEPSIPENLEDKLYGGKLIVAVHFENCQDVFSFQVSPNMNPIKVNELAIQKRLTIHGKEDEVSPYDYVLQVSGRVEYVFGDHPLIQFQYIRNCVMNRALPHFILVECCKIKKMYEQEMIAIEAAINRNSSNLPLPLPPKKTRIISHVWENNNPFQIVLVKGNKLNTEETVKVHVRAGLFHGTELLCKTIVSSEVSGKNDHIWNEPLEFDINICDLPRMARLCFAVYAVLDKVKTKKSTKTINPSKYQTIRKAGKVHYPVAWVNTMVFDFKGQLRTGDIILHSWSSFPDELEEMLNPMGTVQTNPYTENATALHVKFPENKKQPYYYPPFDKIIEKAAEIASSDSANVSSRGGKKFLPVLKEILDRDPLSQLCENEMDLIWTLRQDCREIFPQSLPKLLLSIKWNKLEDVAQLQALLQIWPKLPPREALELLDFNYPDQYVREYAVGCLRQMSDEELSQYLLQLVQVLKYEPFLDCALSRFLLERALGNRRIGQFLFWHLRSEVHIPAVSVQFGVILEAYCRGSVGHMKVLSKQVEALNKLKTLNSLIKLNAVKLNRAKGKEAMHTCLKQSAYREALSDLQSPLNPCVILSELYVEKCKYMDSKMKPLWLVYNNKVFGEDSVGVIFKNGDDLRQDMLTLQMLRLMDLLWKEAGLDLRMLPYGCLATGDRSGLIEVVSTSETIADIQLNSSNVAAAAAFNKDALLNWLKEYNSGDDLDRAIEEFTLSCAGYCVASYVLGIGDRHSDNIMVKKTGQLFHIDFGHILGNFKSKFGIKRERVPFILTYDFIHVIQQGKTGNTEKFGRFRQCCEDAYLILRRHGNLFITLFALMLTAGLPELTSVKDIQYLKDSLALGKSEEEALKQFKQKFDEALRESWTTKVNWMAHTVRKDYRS
T2 sequence (P27986 whole entry partner, canonical isoform): as the sequence (P27986 whole entry partner, canonical isoform) above
Method: as §1, §2

[3] = biological target: T3, hPI3Kγ (PIK3CG) (Homo sapiens, UniProt P48736); test: lipid kinase assay (ADP-Glo), PI3Kγ; settings: for inhibition at 1 µM: determined at 1 μM, at least triplicate, read-out: Inhibitory activity, PI3K isoform γ
T3 construct: purchased ProQinase, Germany 1163‐0000‐1
T3 sequence (P48736 whole entry, canonical isoform): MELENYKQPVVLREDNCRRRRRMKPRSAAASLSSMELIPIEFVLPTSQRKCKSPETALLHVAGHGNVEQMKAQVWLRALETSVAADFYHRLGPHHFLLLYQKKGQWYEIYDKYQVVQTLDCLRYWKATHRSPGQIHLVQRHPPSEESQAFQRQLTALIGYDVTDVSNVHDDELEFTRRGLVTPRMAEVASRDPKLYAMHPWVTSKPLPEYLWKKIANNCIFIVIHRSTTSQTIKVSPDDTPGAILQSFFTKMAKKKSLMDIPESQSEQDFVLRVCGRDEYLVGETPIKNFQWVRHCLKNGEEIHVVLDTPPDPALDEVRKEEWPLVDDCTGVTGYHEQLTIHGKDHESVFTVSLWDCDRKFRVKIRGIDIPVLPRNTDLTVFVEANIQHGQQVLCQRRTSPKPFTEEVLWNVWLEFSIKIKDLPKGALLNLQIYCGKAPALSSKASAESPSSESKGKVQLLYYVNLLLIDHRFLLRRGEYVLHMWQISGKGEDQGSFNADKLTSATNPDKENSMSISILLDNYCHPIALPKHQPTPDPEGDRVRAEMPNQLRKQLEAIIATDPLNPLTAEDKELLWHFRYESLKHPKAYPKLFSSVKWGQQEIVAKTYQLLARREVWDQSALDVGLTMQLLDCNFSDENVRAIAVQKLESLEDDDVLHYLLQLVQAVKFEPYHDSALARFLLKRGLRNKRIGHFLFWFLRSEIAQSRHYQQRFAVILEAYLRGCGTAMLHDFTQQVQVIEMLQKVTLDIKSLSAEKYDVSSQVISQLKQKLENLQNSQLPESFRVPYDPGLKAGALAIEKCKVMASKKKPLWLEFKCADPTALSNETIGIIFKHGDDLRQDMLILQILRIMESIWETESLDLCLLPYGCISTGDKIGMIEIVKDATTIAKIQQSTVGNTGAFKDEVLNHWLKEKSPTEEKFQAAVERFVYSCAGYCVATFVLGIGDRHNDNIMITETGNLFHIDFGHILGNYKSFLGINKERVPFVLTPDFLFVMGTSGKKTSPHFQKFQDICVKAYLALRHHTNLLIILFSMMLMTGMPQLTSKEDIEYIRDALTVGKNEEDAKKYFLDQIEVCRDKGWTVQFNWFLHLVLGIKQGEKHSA
Method: as §1, §2

[4] = biological target: T4, hPI3Kδ (PIK3CD/PIK3R1) (Homo sapiens, UniProt O00329); test: lipid kinase assay (ADP-Glo), PI3Kδ; settings: for inhibition at 1 µM: determined at 1 μM, at least triplicate, read-out: Inhibitory activity, PI3K isoform δ
T4 construct: purchased ProQinase, Germany 1162–1165‐1
T4 sequence (O00329 whole entry, canonical isoform): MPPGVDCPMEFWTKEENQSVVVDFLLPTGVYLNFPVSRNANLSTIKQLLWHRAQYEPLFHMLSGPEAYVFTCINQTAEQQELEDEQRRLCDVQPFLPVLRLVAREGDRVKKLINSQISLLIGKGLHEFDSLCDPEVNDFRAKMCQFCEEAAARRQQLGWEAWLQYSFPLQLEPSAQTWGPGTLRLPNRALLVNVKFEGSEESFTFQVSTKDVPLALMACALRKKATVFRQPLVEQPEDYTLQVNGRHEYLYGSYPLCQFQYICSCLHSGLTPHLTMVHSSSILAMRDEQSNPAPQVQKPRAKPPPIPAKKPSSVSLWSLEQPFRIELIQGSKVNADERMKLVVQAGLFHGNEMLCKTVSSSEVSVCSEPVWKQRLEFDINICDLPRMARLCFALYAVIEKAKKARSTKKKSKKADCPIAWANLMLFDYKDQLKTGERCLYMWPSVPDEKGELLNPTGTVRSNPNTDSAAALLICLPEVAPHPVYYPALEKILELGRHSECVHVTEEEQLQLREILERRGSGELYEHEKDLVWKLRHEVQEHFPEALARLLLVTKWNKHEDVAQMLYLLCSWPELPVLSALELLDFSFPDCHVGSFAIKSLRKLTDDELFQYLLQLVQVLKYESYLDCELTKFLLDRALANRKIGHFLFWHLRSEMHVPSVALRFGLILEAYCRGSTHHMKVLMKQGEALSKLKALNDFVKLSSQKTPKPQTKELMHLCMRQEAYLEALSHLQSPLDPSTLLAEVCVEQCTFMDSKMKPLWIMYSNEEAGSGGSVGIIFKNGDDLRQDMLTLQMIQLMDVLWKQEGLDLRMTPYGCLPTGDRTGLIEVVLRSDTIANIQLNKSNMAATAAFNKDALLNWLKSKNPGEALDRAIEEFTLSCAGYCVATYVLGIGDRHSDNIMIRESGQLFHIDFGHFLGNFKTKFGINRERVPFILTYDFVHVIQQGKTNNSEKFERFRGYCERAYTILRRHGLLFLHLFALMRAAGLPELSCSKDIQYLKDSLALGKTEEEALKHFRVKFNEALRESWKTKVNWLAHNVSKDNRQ
T4 sequence (P27986 whole entry partner, canonical isoform): as the sequence (P27986 whole entry partner, canonical isoform) above
Method: as §1, §2

[5] = Table 3, analogues of 37, read-out: IC50 against PI3Kα
[6] = Table 2, mean of at least three determinations, 95 % confidence intervals

SMILES	inhibition at 1 µM [1] [%]	inhibition at 1 µM [2] [%]	inhibition at 1 µM [3] [%]	inhibition at 1 µM [4] [%]	IC50 [1, 5] [nM]	also measured
O=c1cc(N2CCOCC2)[nH]c2c(-c3cn(-c4cnc5ccccc5c4)nn3)cccc12 [Compound 36, 2‐Morpholino‐8‐[1‐(quinolin‐3‐yl)‐1H‐1,2,3‐triazol‐4‐yl]quinolin‐4(1H)‐one]	< 50	< 50	< 50	< 50	–	–
Cc1cc(O)ccc1-n1cc(-c2cccc3c(=O)cc(N4CCOCC4)[nH]c23)nn1 [Compound 40, 8‐[1‐(4‐Hydroxy‐2‐methylphenyl)‐1H‐1,2,3‐triazol‐4‐yl]‐2‐morpholinoquinolin‐4(1H)‐one]	< 50	< 50	< 50	< 50	–	–
CCN(CC)C(=O)c1cccc(Cn2cc(-c3cccc4c(=O)cc(N5CCOCC5)[nH]c34)nn2)c1 [Compound 62, N,N ‐Diethyl‐3‐{[4‐(2‐morpholino‐4‐oxo‐1,4‐dihydroquinolin‐8‐yl)‐1H‐1,2,3‐triazol‐1‐yl]methyl}benzamide]	–	–	–	–	290 ± 80	–
O=C(O)CCCCn1cc(-c2cccc3c(=O)cc(N4CCOCC4)[nH]c23)nn1 [Compound 56, 5‐[4‐(2‐Morpholino‐4‐oxo‐1,4‐dihydroquinolin‐8‐yl)‐1H‐1,2,3‐triazol‐1‐yl]pentanoic acid]	–	–	–	–	> 1000	–
CS(=O)(=O)NC(=O)c1cccc(Cn2cc(-c3cccc4c(=O)cc(N5CCOCC5)[nH]c34)nn2)c1 [Compound 58, N ‐(Methylsulfonyl)‐3‐{[4‐(2‐morpholino‐4‐oxo‐1,4‐dihydroquinolin‐8‐yl)‐1H‐1,2,3‐triazol‐1‐yl]methyl}benzamide]	–	–	–	–	> 1000	–
O=C(O)c1cccc(-n2cc(-c3cccc4c(=O)cc(N5CCOCC5)[nH]c34)nn2)c1 [Compound 52, 3‐[4‐(2‐Morpholino‐4‐oxo‐1,4‐dihydroquinolin‐8‐yl)‐1H‐1,2,3‐triazol‐1‐yl]benzoic acid]	< 50	< 50	< 50	< 50	–	–
O=c1cc(N2CCOCC2)[nH]c2c(-c3cn(-c4ccc5c(c4)OCO5)nn3)cccc12 [Compound 46, 8‐[1‐(Benzo[d][1,3]dioxol‐5‐yl)‐1H‐1,2,3‐triazol‐4‐yl]‐2‐morpholinoquinolin‐4(1H)‐one]	< 50	< 50	< 50	< 50	–	–
O=c1cc(N2CCOCC2)[nH]c2c(-c3cn(-c4ccccc4CO)nn3)cccc12 [Compound 41, 8‐{1‐[2‐(Hydroxymethyl)phenyl]‐1H‐1,2,3‐triazol‐4‐yl}‐2‐morpholinoquinolin‐4(1H)‐one]	< 50	< 50	< 50	< 50	–	–
N#CCc1ccc(-n2cc(-c3cccc4c(=O)cc(N5CCOCC5)[nH]c34)nn2)cc1 [Compound 33, 2‐{4‐[4‐(2‐Morpholino‐4‐oxo‐1,4‐dihydroquinolin‐8‐yl)‐1H‐1,2,3‐triazol‐1‐yl]phenyl} acetonitrile]	< 50	< 50	< 50	< 50	–	–
Nc1ccc(-n2cc(-c3cccc4c(=O)cc(N5CCOCC5)[nH]c34)nn2)cc1 [Compound 32, 8‐[1‐(4‐Aminophenyl)‐1H‐1,2,3‐triazol‐4‐yl]‐2‐morpholinoquinolin‐4(1H)‐one]	< 50	< 50	< 50	< 50	–	–
COC(=O)c1cccc(-n2cc(-c3cccc4c(=O)cc(N5CCOCC5)[nH]c34)nn2)c1 [Compound 49, Methyl 3‐[4‐(2‐morpholino‐4‐oxo‐1,4‐dihydroquinolin‐8‐yl)‐1H‐1,2,3‐triazol‐1‐yl]benzoate]	< 50	< 50	< 50	< 50	–	–
O=c1cc(N2CCOCC2)[nH]c2c(-c3cn(-c4cccc(O)c4)nn3)cccc12 [Compound 26, 8‐[1‐(3‐Hydroxyphenyl)‐1H‐1,2,3‐triazol‐4‐yl]‐2‐morpholinoquinolin‐4(1H)‐one]	< 50	< 50	< 50	< 50	–	–
O=c1cc(N2CCOCC2)[nH]c2c(-c3cn(-c4ccc(Cl)cc4)nn3)cccc12 [Compound 28, 8‐[1‐(4‐Chlorophenyl)‐1H‐1,2,3‐triazol‐4‐yl]‐2‐morpholinoquinolin‐4(1H)‐one]	< 50	< 50	< 50	< 50	–	–
O=c1cc(N2CCOCC2)[nH]c2c(-c3cn(Cc4cccc(-c5nnn[nH]5)c4)nn3)cccc12 [Compound 63, 8‐{1‐[3‐(1H‐Tetrazol‐5‐yl)benzyl]‐1H‐1,2,3‐triazol‐4‐yl}‐2‐morpholinoquinolin‐4(1H)‐one]	–	–	–	–	> 1000	–
NS(=O)(=O)c1ccc(-n2cc(-c3cccc4c(=O)cc(N5CCOCC5)[nH]c34)nn2)cc1 [Compound 50, 4‐[4‐(2‐Morpholino‐4‐oxo‐1,4‐dihydroquinolin‐8‐yl)‐1H‐1,2,3‐triazol‐1‐yl]benzenesulfonamide]	< 50	< 50	< 50	< 50	–	–
O=C(O)c1ccc(-n2cc(-c3cccc4c(=O)cc(N5CCOCC5)[nH]c34)nn2)cc1 [Compound 45, 4‐[4‐(2‐Morpholino‐4‐oxo‐1,4‐dihydroquinolin‐8‐yl)‐1H‐1,2,3‐triazol‐1‐yl]benzoic acid]	> 50	> 50	> 50	> 50	–	IC50 ([1]; Table 2, read-out: IC50 PI3Kα): 320 ± 200 nM; IC50 [2, 6]: 300 ± 200 nM; IC50 [3, 6]: 300 ± 200 nM; IC50 [4, 6]: 170 ± 100 nM
COc1ccc(NC(C)=O)cc1-n1cc(-c2cccc3c(=O)cc(N4CCOCC4)[nH]c23)nn1 [Compound 38, N ‐{4‐Methoxy‐3‐[4‐(2‐morpholino‐4‐oxo‐1,4‐dihydroquinolin‐8‐yl)‐1H‐1,2,3‐triazol‐1‐yl]phenyl}acetamide]	< 50	< 50	< 50	< 50	–	–
O=C(NCc1ccccc1)c1cccc(Cn2cc(-c3cccc4c(=O)cc(N5CCOCC5)[nH]c34)nn2)c1 [Compound 60, N ‐Benzyl‐3‐{[4‐(2‐morpholino‐4‐oxo‐1,4‐dihydroquinolin‐8‐yl)‐1H‐1,2,3‐triazol‐1‐yl]methyl}benzamide]	–	–	–	–	140 ± 90	–
O=C(O)CCCn1cc(-c2cccc3c(=O)cc(N4CCOCC4)[nH]c23)nn1 [Compound 55, 4‐[4‐(2‐Morpholino‐4‐oxo‐1,4‐dihydroquinolin‐8‐yl)‐1H‐1,2,3‐triazol‐1‐yl]butanoic acid]	–	–	–	–	> 1000	–
O=C(O)CCCCCn1cc(-c2cccc3c(=O)cc(N4CCOCC4)[nH]c23)nn1 [Compound 57]	–	–	–	–	> 1000	–
O=C(NC1CC1)c1cccc(Cn2cc(-c3cccc4c(=O)cc(N5CCOCC5)[nH]c34)nn2)c1 [Compound 61, N ‐Cyclopropyl‐3‐{[4‐(2‐morpholino‐4‐oxo‐1,4‐dihydroquinolin‐8‐yl)‐1H‐1,2,3‐triazol‐1‐yl]methyl}benzamide]	–	–	–	–	250 ± 80	–
NC(=O)c1cccc(Cn2cc(-c3cccc4c(=O)cc(N5CCOCC5)[nH]c34)nn2)c1 [Compound 59, 3‐{[4‐(2‐Morpholino‐4‐oxo‐1,4‐dihydroquinolin‐8‐yl)‐1H‐1,2,3‐triazol‐1‐yl]methyl}benzamide]	–	–	–	–	800 ± 740	–
